Each block holds one compound with its values, some of them ahead of it.
Key:
[1] = test system: ABIL (ammonia-binding liquid inoculum), nitrifying microbial enrichment containing both AOA and AOB; assay: Nitrification inhibition assay on ABIL (ammonium consumption); assay type: cell-based; settings: 10 µM compound; structural variants outside formula (I); read-out: Relative nitrification (%) by ABIL treated with 10 µM compound
[2] = test system: Nitrososphaera viennensis; assay: Nitrification inhibition assay on Nitrososphaera viennensis (nitrite, Griess); assay type: cell-based, Nitrososphaera viennensis EN76T; settings: Nitrososphaera viennensis; 2.5 µM compound; structural variants outside formula (I); read-out: Relative nitrification (%) by Nitrososphaera viennensis treated with 2.5 µM compound
How it was run: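 N. viennensis EN76T cultures in FWM (pH 7.5, NH4Cl-supplemented), 5× concentrated, treated with compounds at 2.5 µM final (0.25% DMSO) and incubated 24 h at 42 °C. Nitrite measured by Griess absorbance at 540 nm against a standard curve. Relative nitrification normalized between DMSO (no compound) and 100 µM PTIO controls.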

agricultural soils = assay: In soil nitrification inhibition assay; settings: soil, Soil 2
Method: Top layer (0 to 10 cm) soil samples were collected from different fields in Belgium (Merelbeke, Sint-Laureins and Moorslede). Vegetation was removed and samples were taken from different plots. All soil samples were mixed and sieved (mesh size 2.8 mm) to filter large debris and homogenize soil. The soil was stored at 5° C. in plastic containers covered with Saran foil to prevent changes in microbial community composition and to maintain the original soil water content.
Soil water content was determined by drying 20 g soil for ≥ 48 h in a 60° C. oven and measuring weight before and after drying. Based on the soil water content (± 20%), compound solutions were prepared so that addition of 200 µl compound and 200 µl NH4Cl solution would result in a final compound concentration of 50 µM (unless otherwise stated) and a final NH4+ concentration of 10 mM. Per treatment, 5 small pots were filled with 20 g soil. Next, the soil was treated first with the respective compound solution and then with the NH4Cl solution. Per tray, positive (50 µM DMP) and negative controls (DMSO) were included. […] Demineralized water was added to the soil every 2 to 3 days to a soil weight of 20 g. In the end, each sample of 20 g soil was dissolved in 100 ml 1 M KCI and shaken for 1 hour, followed by filtration through Whatmann® paper. The filtrate was used to measure pH, NH4+ and NO3— concentrations. The nitrification percentage was calculated as the ratio of the consumed ammonium in treated soil versus the consumed ammonium in non-treated soil; the nitrification inhibition percentage was calculated as ‘100% - the nitrification percentage’.

Aliivibrio fischeri = assay type: cell-based
Method: Furthermore, a representative subset was tested on Aliivibrio fischeri growth (formerly known as Vibrio fischeri), a bacterium used in the Microtox assay to test toxic substances in different substrates such as (drinking) water, air, soils and sediments.
Two of these variants were also tested on Aliivibrio fischeri to test possible toxicity.

Structure (SMILES): CC(C)n1ncc2cc(NC(=O)CN(C)S(=O)(=O)c3cccs3)cnc21 [Example 88]
- activity at 10 µM [1]: 100%
- activity at 2.5 µM [2]: 94%

Structure (SMILES): C=CCNC(=O)c1cnc2c(cnn2C(C)C)c1 [Example 89]
- activity at 10 µM [1]: 100%
- activity at 2.5 µM [2]: 100%

Structure (SMILES): CCOc1cc(C(=O)Nc2cnc3c(cnn3C(C)C)c2)c([N+](=O)[O-])cc1OC [Example 73]
- activity at 10 µM [1]: 100%
- activity at 2.5 µM [2]: 93%

Structure (SMILES): Cc1nc2c(cc1C(=O)NC(C)C1CCCO1)c(C)nn2C (centres unmarked) [Example 48]
- activity at 10 µM [1]: 100%
- activity at 2.5 µM [2]: 99%

Structure (SMILES): S=C1NCCS1 [1,3-thiazolidine-2-thione]
- inhibition at 50 µM (agricultural soils; 120 h, 5 days, 50 µM of each compound): 59%
- inhibition at 100 µM (agricultural soils; 168 h, 7 days, 100 µM of each compound, 6 inhibitors alone and combined with Example 2): 46%

Structure (SMILES): O=C(Nc1ccc(C(=O)Nc2cccc3cn[nH]c23)cc1)c1ccccc1 [Example 137]
- activity at 10 µM [1]: 100%
- activity at 2.5 µM [2]: 98%

Structure (SMILES): O=C1NCCN1c1cccc(NCc2cccc3cn[nH]c23)c1 [Example 116]
- activity at 10 µM [1]: 99%
- activity at 2.5 µM [2]: 96%

Structure (SMILES): O=C(CC1CCCCCC1)c1n[nH]c2ccccc12 [Example 119]
- activity at 10 µM [1]: 99%
- activity at 2.5 µM [2]: 100%

Structure (SMILES): Cc1ccc2[nH]nc(C(=O)N3CCS(=O)(=O)C(C)(C)C3)c2c1 [Example 104]
- activity at 10 µM [1]: 93%
- activity at 2.5 µM [2]: 100%

Structure (SMILES): O=S(=O)(CCC1CC1)Nc1n[nH]c2cccc(F)c12 [Example 102]
- activity at 10 µM [1]: 90%
- activity at 2.5 µM [2]: 100%

Structure (SMILES): CC(C)n1ncc2cc(NC(=O)CCS(=O)(=O)c3ccc(Cl)cc3)cnc21 [Example 28]
- activity at 10 µM [1]: 92%
- activity at 2.5 µM [2]: 100%

- Growth of Aliivibrio fischeri, relative to control without compound (%) (Aliivibrio fischeri): 3%
Structure (SMILES): N#Cc1nn(CN2CCSCC2)c2ccc(Cl)cc12 [drawing 171]

Structure (SMILES): CCCc1nnc(NCc2cccc3cn[nH]c23)o1 [Example 151]
- activity at 10 µM [1]: 100%
- activity at 2.5 µM [2]: 94%

Structure (SMILES): CCOc1ccc(CN(CC)C(=O)c2n[nH]c3ccccc23)cc1OC [Example 163]
- activity at 10 µM [1]: 100%
- activity at 2.5 µM [2]: 99%

Structure (SMILES): CC1(C)CN(C(=O)c2n[nH]c3ccccc23)CC[S+]1[O-] (centres unmarked) [Example 157]
- activity at 10 µM [1]: 100%
- activity at 2.5 µM [2]: 94%
